# Assay results published in ChEMBL document CHEMBL4715724, “Novel 5-substituted-2-anilinoquinolines with 3-(morpholino or 4-methylpiperazin-1-yl)propoxy moiety as broad spectrum antiproliferative agents: Synthesis, cell based assays and kinase screening” (Bioorg Med Chem Lett, 2016).
# What was measured:
# K562 = experiment: cells; type: functional; settings: Homo sapiens, time 48 hrs
# Description: Growth inhibition of human K562 cells incubated for 48 hrs by sulforhodamine B assay
# HCT-116 = experiment: cells; type: functional; settings: Homo sapiens, time 48 hrs
# Description: Growth inhibition of human HCT-116 cells incubated for 48 hrs by sulforhodamine B assay
# HCT-15 = experiment: cells; type: functional; settings: Homo sapiens, time 48 hrs
# Description: Growth inhibition of human HCT-15 cells incubated for 48 hrs by sulforhodamine B assay
# RXF 393 = experiment: cells; type: functional; settings: Homo sapiens, time 48 hrs
# Description: Growth inhibition of human RXF 393 cells incubated for 48 hrs by sulforhodamine B assay
# PC-3 = experiment: cells; type: functional; settings: Homo sapiens, time 48 hrs
# Description: Growth inhibition of human PC-3 cells incubated for 48 hrs by sulforhodamine B assay
# MDA-MB-231 = experiment: cells; type: functional; settings: Homo sapiens, time 48 hrs
# Description: Growth inhibition of human MDA-MB-231/ATCC cells incubated for 48 hrs by sulforhodamine B assay
# Hs-578T = experiment: cells; type: functional; settings: Homo sapiens, time 48 hrs
# Description: Growth inhibition of human Hs-578T cells incubated for 48 hrs by sulforhodamine B assay
# [1] = molecular target: Tyrosine-protein kinase ABL1 (Homo sapiens) (UniProt P00519); experiment: Inhibition of recombinant N-terminal His6-tagged human ABL (27 to end residues) expressed in baculovirus infected Sf21 insect cells assessed as residual activity at 10 uM relative to control
# [2] = system: Tyrosine-protein kinase ABL1 (Homo sapiens), P00519 [T315I]; experiment: Inhibition of recombinant N-terminal His6-tagged human ABL T315I mutant (27 to end residues) expressed in baculovirus infected Sf21 insect cells assessed as residual activity at 10 uM relative to control
# [3] = molecular target: Aurora kinase A (Homo sapiens) (UniProt O14965); experiment: Inhibition of human recombinant Aurora A assessed as residual activity at 10 uM relative to control
# [4] = molecular target: CDK3/Cyclin E (Homo sapiens) (UniProt P24864+Q00526); experiment: Inhibition of full length C-terminal His6-tagged human CDK3/full length N-terminal GST-tagged human Cyclin E expressed in baculovirus infected Sf21 insect cells assessed as residual activity at 10 uM relative to control
# [5] = molecular target: Fibroblast growth factor receptor 3 (Homo sapiens) (UniProt P22607); experiment: Inhibition of N-terminal His6-tagged human FGFR3 (447 to 761 residues) expressed in Sf21 cells assessed as residual activity at 10 uM relative to control
# [6] = molecular target: Inhibitor of nuclear factor kappa-B kinase subunit alpha (Homo sapiens) (UniProt O15111); experiment: Inhibition of human IKKalpha at 10 uM relative to control
# [7] = molecular target: Tyrosine-protein kinase JAK2 (Homo sapiens) (UniProt O60674); experiment: Inhibition of recombinant C-terminal His6-tagged human JAK2 (808 to end residues) expressed in baculovirus infected Sf21 insect cells at 10 uM relative to control
# [8] = molecular target: Platelet-derived growth factor receptor alpha (Homo sapiens) (UniProt P16234); experiment: Inhibition of recombinant N-terminal His6-tagged human PDGFRalpha (550 to end residues) expressed in baculovirus infected Sf21 insect cells at 10 uM relative to control
# [9] = molecular target: Proto-oncogene tyrosine-protein kinase receptor Ret (Homo sapiens) (UniProt P07949); experiment: Inhibition of recombinant N-terminal GST-tagged human RET (658 to end residues) expressed in baculovirus infected Sf21 insect cells at 10 uM relative to control
# [10] = molecular target: High affinity nerve growth factor receptor (Homo sapiens, UniProt P04629); experiment: Inhibition of recombinant N-terminal His6-tagged human TrkA (440 to end residues) expressed in baculovirus infected Sf21 insect cells at 10 uM relative to control
# Chain of Aurora kinase A (Homo sapiens) (O14965 whole entry): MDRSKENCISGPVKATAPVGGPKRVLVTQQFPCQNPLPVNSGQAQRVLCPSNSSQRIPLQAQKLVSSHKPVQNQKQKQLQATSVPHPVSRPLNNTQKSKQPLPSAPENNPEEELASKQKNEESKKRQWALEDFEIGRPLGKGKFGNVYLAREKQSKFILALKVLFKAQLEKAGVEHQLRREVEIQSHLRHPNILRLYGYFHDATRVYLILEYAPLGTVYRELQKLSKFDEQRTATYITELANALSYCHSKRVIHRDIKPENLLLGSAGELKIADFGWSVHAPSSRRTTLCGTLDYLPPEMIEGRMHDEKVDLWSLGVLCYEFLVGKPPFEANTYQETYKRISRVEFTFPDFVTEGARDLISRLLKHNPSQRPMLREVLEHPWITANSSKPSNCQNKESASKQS
# Chain of Proto-oncogene tyrosine-protein kinase receptor Ret (Homo sapiens) (P07949 whole entry): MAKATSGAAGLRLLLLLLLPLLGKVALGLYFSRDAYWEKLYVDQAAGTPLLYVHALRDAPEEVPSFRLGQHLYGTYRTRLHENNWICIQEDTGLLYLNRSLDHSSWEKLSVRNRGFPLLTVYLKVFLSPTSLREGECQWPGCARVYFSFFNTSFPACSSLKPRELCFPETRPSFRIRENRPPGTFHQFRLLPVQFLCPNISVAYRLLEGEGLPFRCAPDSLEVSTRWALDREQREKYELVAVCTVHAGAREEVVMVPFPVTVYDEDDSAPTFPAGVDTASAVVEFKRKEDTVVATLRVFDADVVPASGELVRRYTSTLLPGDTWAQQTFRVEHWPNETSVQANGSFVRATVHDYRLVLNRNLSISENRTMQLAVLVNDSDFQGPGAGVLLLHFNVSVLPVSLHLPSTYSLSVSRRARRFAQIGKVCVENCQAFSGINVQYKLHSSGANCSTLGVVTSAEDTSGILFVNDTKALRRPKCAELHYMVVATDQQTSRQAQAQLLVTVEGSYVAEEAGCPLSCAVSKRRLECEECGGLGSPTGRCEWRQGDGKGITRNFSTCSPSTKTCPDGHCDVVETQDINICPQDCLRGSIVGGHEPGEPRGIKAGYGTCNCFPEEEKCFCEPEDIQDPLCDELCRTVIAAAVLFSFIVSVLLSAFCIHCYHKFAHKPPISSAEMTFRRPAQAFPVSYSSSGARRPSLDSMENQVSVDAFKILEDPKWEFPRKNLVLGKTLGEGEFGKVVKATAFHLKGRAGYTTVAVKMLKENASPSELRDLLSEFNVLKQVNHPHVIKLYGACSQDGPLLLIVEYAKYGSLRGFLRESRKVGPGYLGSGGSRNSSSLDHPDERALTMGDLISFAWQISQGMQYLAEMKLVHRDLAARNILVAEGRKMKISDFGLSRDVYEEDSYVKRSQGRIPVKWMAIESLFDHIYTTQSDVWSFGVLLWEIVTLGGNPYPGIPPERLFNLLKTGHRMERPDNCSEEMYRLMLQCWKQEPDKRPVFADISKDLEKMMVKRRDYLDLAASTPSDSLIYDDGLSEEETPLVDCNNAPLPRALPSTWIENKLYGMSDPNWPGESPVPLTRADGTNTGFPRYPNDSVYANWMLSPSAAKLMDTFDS
# Chain of CDK3/Cyclin E (Homo sapiens) (P24864 whole entry, looked up, the tested form may be a part): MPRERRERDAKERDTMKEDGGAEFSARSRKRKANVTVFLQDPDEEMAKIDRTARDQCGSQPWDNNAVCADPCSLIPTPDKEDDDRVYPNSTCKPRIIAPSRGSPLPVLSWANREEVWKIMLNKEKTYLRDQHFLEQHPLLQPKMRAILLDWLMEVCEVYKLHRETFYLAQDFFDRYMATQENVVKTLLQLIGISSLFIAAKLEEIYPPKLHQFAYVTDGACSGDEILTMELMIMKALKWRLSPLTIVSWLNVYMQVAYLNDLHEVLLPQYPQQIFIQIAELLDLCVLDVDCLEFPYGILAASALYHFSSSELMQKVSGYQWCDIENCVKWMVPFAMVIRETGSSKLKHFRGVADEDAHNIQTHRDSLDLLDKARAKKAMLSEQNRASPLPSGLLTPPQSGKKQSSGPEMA
# Chain of CDK3/Cyclin E (Homo sapiens) (Q00526 whole entry, looked up, the tested form may be a part): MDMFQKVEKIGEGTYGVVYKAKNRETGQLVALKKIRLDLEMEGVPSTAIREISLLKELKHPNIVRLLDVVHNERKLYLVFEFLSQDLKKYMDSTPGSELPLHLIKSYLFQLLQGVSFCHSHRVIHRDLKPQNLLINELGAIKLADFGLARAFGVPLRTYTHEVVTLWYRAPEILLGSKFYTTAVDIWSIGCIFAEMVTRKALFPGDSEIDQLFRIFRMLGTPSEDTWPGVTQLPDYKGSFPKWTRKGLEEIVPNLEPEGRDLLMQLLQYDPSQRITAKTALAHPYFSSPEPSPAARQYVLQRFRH
# Chain of Tyrosine-protein kinase JAK2 (Homo sapiens) (O60674 whole entry): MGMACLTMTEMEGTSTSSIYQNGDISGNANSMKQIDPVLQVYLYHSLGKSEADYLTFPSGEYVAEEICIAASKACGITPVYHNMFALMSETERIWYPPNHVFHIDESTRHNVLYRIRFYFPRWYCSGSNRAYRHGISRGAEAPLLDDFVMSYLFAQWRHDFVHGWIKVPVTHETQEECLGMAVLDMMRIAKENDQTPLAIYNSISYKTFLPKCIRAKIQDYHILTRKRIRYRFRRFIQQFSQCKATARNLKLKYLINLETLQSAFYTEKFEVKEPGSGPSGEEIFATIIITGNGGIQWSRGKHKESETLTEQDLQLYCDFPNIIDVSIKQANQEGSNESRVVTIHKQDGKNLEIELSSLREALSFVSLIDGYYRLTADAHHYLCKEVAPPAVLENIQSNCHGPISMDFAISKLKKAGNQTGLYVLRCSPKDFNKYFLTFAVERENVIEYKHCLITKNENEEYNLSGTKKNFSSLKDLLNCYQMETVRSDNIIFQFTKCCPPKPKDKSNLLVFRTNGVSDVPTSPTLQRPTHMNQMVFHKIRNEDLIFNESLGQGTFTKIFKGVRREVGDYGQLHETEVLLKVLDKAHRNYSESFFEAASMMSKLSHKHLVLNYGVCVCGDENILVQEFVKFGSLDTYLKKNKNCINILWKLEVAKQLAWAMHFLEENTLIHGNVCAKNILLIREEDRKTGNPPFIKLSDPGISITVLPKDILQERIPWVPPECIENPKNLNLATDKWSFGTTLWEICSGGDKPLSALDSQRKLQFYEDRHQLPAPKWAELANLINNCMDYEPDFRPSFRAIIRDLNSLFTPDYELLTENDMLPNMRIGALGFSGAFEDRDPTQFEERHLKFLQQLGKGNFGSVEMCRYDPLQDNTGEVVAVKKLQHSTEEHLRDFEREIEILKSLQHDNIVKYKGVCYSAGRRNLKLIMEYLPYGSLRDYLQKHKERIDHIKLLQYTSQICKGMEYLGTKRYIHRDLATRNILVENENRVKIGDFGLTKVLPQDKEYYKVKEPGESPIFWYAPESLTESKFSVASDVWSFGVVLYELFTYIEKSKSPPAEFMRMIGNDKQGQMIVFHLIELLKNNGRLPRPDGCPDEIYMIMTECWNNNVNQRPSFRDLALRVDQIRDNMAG
# Chain of Inhibitor of nuclear factor kappa-B kinase subunit alpha (Homo sapiens) (O15111 whole entry): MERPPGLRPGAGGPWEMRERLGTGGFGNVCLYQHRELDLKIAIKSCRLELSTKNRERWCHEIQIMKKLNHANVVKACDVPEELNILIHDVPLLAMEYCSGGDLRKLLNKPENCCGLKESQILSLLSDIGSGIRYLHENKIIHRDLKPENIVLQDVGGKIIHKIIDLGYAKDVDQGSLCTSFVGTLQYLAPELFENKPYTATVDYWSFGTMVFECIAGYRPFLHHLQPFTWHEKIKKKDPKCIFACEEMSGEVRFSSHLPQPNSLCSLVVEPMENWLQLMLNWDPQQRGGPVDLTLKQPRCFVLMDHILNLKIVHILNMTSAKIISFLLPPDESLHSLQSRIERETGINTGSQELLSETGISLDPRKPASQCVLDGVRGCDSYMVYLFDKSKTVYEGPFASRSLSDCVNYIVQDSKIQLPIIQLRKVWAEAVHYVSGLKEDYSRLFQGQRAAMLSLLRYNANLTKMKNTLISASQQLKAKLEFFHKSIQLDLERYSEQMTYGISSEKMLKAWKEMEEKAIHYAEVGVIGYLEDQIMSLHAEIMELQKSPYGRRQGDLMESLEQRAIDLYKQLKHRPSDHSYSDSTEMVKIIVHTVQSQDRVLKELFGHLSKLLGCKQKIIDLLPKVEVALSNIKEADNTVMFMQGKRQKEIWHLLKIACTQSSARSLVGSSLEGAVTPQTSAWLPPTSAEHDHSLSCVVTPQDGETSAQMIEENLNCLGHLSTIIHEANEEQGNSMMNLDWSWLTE
# Chain of Fibroblast growth factor receptor 3 (Homo sapiens) (P22607 23-806 limits assumed): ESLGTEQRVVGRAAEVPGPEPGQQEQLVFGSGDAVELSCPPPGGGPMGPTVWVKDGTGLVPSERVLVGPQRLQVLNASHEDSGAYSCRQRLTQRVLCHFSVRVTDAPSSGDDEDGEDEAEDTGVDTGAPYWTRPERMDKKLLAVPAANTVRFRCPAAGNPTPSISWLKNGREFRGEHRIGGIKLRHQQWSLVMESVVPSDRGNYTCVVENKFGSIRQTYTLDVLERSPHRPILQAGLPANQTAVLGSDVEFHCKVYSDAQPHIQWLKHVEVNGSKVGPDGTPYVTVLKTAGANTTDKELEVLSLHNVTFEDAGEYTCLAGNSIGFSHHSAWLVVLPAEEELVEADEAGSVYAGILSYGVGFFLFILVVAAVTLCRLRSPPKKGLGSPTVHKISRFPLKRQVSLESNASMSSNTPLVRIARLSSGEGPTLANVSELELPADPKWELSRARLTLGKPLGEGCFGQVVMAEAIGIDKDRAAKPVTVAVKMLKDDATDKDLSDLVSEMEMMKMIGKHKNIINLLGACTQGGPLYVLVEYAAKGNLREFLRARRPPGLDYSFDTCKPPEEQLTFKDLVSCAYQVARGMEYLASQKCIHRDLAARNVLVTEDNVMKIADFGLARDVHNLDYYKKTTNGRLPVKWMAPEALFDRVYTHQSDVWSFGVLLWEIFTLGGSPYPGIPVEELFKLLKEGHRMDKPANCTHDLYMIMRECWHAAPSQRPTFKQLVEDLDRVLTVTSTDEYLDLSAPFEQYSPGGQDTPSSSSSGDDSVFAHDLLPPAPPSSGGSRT
structure (smiles),measurement,setting,value
CN1CCN(CCCOc2cccc3nc(Nc4ccc(Cl)c(C(F)(F)F)c4)ccc23)CC1,GI50,K562,1620 nM
same,GI50,HCT-116,1500 nM
same,GI50,HCT-15,1220 nM
same,GI50,RXF 393,1630 nM
same,GI50,PC-3,1570 nM
same,GI50,MDA-MB-231,1470 nM
same,GI50,Hs-578T,2000 nM
same,Activity,[1],< 60%
same,Activity,[2],< 60%
same,Activity,[3],< 60%
same,Activity,[4],< 60%
same,Activity,[5],< 60%
same,inhibition,[6],< 60%
same,inhibition,[7],< 60%
same,inhibition,[8],< 60%
same,inhibition,[9],< 60%
same,inhibition,[10],96%
